In PubChem BioAssay AID1963832 (Molecular Pharmacology Branch, DTP, NCI, 2024):

Tested on: 885724-159-R-J1-PDC complex spheroid viability
Test: Anticancer human tumor 885724-159-R-J1-PDC patient-derived pancreatic adenocarcinoma cell line growth inhibition [POLQ]
Conditions: for IC50: curve of first compound; for viability, T/C: stronger effect = lower value
Procedure, shortened: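 Growth inhibition in 3D: complex spheroids (tumor PDC, HUVEC, MSC) treated with POLQ inhibitor combinations; where Cmax unknown, highest tested concentration 10 microM, except SN-38 at 1 microM.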

[1] = second compound 0.0316 µM, first compound 0.00316 µM
[2] = second compound 0.0316 µM, first compound 0.01 µM
[3] = second compound 0.0316 µM, first compound 0.0316 µM
[4] = second compound 0.0316 µM, first compound 0.1 µM
[5] = second compound 0.0316 µM, first compound 0.316 µM
[6] = second compound 0.0316 µM, first compound 1 µM
[7] = second compound 0.1 µM, first compound 0.00316 µM
[8] = second compound 0.1 µM, first compound 0.01 µM
[9] = second compound 0.1 µM, first compound 0.0316 µM
[10] = second compound 0.1 µM, first compound 0.1 µM
[11] = second compound 0.1 µM, first compound 0.316 µM
[12] = second compound 0.1 µM, first compound 1 µM
[13] = second compound 0.316 µM, first compound 0.00316 µM
[14] = second compound 0.316 µM, first compound 0.01 µM
[15] = second compound 0.316 µM, first compound 0.0316 µM
[16] = second compound 0.316 µM, first compound 0.1 µM
[17] = second compound 0.316 µM, first compound 0.316 µM
[18] = second compound 0.316 µM, first compound 1 µM
[19] = second compound 1 µM, first compound 0.00316 µM
[20] = second compound 1 µM, first compound 0.01 µM
[21] = second compound 1 µM, first compound 0.0316 µM
[22] = second compound 1 µM, first compound 0.1 µM
[23] = second compound 1 µM, first compound 0.316 µM
[24] = second compound 1 µM, first compound 1 µM
[25] = second compound 3.16 µM, first compound 0.00316 µM
[26] = second compound 3.16 µM, first compound 0.01 µM
[27] = second compound 3.16 µM, first compound 0.0316 µM
[28] = second compound 3.16 µM, first compound 0.1 µM
[29] = second compound 3.16 µM, first compound 0.316 µM
[30] = second compound 3.16 µM, first compound 1 µM
[31] = second compound 10 µM, first compound 0.00316 µM
[32] = second compound 10 µM, first compound 0.01 µM
[33] = second compound 10 µM, first compound 0.0316 µM
[34] = second compound 10 µM, first compound 0.1 µM
[35] = second compound 10 µM, first compound 0.316 µM
[36] = second compound 10 µM, first compound 1 µM
[37] = second compound 0.0316 µM, first compound 3.16 µM
[38] = second compound 0.0316 µM, first compound 10 µM
[39] = second compound 0.1 µM, first compound 3.16 µM
[40] = second compound 0.1 µM, first compound 10 µM
[41] = second compound 0.316 µM, first compound 3.16 µM
[42] = second compound 0.316 µM, first compound 10 µM
[43] = second compound 1 µM, first compound 3.16 µM
[44] = second compound 1 µM, first compound 10 µM
[45] = second compound 3.16 µM, first compound 3.16 µM
[46] = second compound 3.16 µM, first compound 10 µM
[47] = second compound 10 µM, first compound 3.16 µM
[48] = second compound 10 µM, first compound 10 µM
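Also: spheroids exposed to compounds for 7 days.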

SMILES: C=CCn1c(=O)c2cnc(Nc3ccc(N4CCN(C)CC4)cc3)nc2n1-c1cccc(C(C)(C)O)n1 + Cc1cccc(N(C)C(=O)C2C(O)CCN2c2nc(C)cc(C(F)(F)F)c2C#N)c1
- IC50 (second compound 0.0316 µM): > 1000 nM
- IC50 (second compound 0.1 µM): 771 nM
- IC50 (second compound 0.316 µM): 435 nM
- IC50 (second compound 1 µM): 856 nM
- IC50 (second compound 3.16 µM): > 1000 nM
- IC50 (second compound 10 µM): 817 nM
- viability, T/C [1]: 101%
- viability, T/C [2]: 95.6%
- viability, T/C [3]: 84.9%
- viability, T/C [4]: 72.6%
- viability, T/C [5]: 56.5%
- viability, T/C [6]: 51.1%
- viability, T/C [7]: 105%
- viability, T/C [8]: 98%
- viability, T/C [9]: 93%
- viability, T/C [10]: 77.2%
- viability, T/C [11]: 59.9%
- viability, T/C [12]: 47.2%
- viability, T/C [13]: 98.6%
- viability, T/C [14]: 97.9%
- viability, T/C [15]: 93.7%
- viability, T/C [16]: 73%
- viability, T/C [17]: 53.3%
- viability, T/C [18]: 43.6%
- viability, T/C [19]: 101%
- viability, T/C [20]: 93.8%
- viability, T/C [21]: 88.9%
- viability, T/C [22]: 70.1%
- viability, T/C [23]: 55%
- viability, T/C [24]: 49.4%
- viability, T/C [25]: 92.2%
- viability, T/C [26]: 96.5%
- viability, T/C [27]: 94.2%
- viability, T/C [28]: 77.7%
- viability, T/C [29]: 61.6%
- viability, T/C [30]: 50%
- viability, T/C [31]: 103%
- viability, T/C [32]: 84.8%
- viability, T/C [33]: 98.2%
- viability, T/C [34]: 82.7%
- viability, T/C [35]: 61.6%
- viability, T/C [36]: 47.5%

SMILES: CC1COCCN1c1cc(C2(S(C)(=N)=O)CC2)nc(-c2ccnc3[nH]ccc23)n1 (stereo not drawn) + Cc1cccc(N(C)C(=O)C2C(O)CCN2c2nc(C)cc(C(F)(F)F)c2C#N)c1
- IC50 (second compound 0.0316 µM): > 10000 nM
- IC50 (second compound 0.1 µM): > 10000 nM
- IC50 (second compound 0.316 µM): 9040 nM
- IC50 (second compound 1 µM): 5330 nM
- IC50 (second compound 3.16 µM): > 10000 nM
- IC50 (second compound 10 µM): > 10000 nM
- viability, T/C [3]: 105%
- viability, T/C [4]: 97.3%
- viability, T/C [5]: 89%
- viability, T/C [6]: 72%
- viability, T/C [37]: 58%
- viability, T/C [38]: 51.7%
- viability, T/C [9]: 103%
- viability, T/C [10]: 94.1%
- viability, T/C [11]: 97.9%
- viability, T/C [12]: 65.4%
- viability, T/C [39]: 55.2%
- viability, T/C [40]: 53.8%
- viability, T/C [15]: 108%
- viability, T/C [16]: 102%
- viability, T/C [17]: 92.5%
- viability, T/C [18]: 72.9%
- viability, T/C [41]: 55.9%
- viability, T/C [42]: 49.7%
- viability, T/C [21]: 109%
- viability, T/C [22]: 93.6%
- viability, T/C [23]: 97%
- viability, T/C [24]: 71.8%
- viability, T/C [43]: 52.3%
- viability, T/C [44]: 47.2%
- viability, T/C [27]: 98.5%
- viability, T/C [28]: 95.6%
- viability, T/C [29]: 92.8%
- viability, T/C [30]: 73.8%
- viability, T/C [45]: 51.7%
- viability, T/C [46]: 51.3%
- viability, T/C [33]: 92.2%
- viability, T/C [34]: 97.2%
- viability, T/C [35]: 91.5%
- viability, T/C [36]: 68.2%
- viability, T/C [47]: 56.4%
- viability, T/C [48]: 50.4%

SMILES: CCCS(=O)(=O)Nc1ccc(F)c(C(=O)c2c[nH]c3ncc(-c4ccc(Cl)cc4)cc23)c1F + Cc1cccc(N(C)C(=O)C2C(O)CCN2c2nc(C)cc(C(F)(F)F)c2C#N)c1
- IC50 (second compound 0.0316 µM): > 10000 nM
- IC50 (second compound 0.1 µM): > 10000 nM
- IC50 (second compound 0.316 µM): > 10000 nM
- IC50 (second compound 1 µM): > 10000 nM
- IC50 (second compound 3.16 µM): > 10000 nM
- IC50 (second compound 10 µM): > 10000 nM
- viability, T/C [3]: 100%
- viability, T/C [4]: 118%
- viability, T/C [5]: 116%
- viability, T/C [6]: 142%
- viability, T/C [37]: 140%
- viability, T/C [38]: 94.6%
- viability, T/C [9]: 99.8%
- viability, T/C [10]: 111%
- viability, T/C [11]: 122%
- viability, T/C [12]: 142%
- viability, T/C [39]: 158%
- viability, T/C [40]: 99.4%
- viability, T/C [15]: 103%
- viability, T/C [16]: 112%
- viability, T/C [17]: 135%
- viability, T/C [18]: 158%
- viability, T/C [41]: 158%
- viability, T/C [42]: 100%
- viability, T/C [21]: 117%
- viability, T/C [22]: 102%
- viability, T/C [23]: 123%
- viability, T/C [24]: 144%
- viability, T/C [43]: 160%
- viability, T/C [44]: 97.5%
- viability, T/C [27]: 108%
- viability, T/C [28]: 109%
- viability, T/C [29]: 121%
- viability, T/C [30]: 155%
- viability, T/C [45]: 151%
- viability, T/C [46]: 86.6%
- viability, T/C [33]: 101%
- viability, T/C [34]: 105%
- viability, T/C [35]: 143%
- viability, T/C [36]: 153%
- viability, T/C [47]: 137%
- viability, T/C [48]: 82.9%

SMILES: COc1cccc(OCCCN)c1-c1cc(Nc2cnc(C#N)cn2)n[nH]1 + Cc1cccc(N(C)C(=O)C2C(O)CCN2c2nc(C)cc(C(F)(F)F)c2C#N)c1
- IC50 (second compound 0.0316 µM): 10.6 nM
- IC50 (second compound 0.1 µM): 20.7 nM
- IC50 (second compound 0.316 µM): 10.6 nM
- IC50 (second compound 1 µM): 9.08 nM
- IC50 (second compound 3.16 µM): 8.91 nM
- IC50 (second compound 10 µM): 9.02 nM
- viability, T/C [1]: 71.8%
- viability, T/C [2]: 51.3%
- viability, T/C [3]: 42.9%
- viability, T/C [4]: 44.4%
- viability, T/C [5]: 46.4%
- viability, T/C [6]: 45.6%
- viability, T/C [7]: 78.5%
- viability, T/C [8]: 57.1%
- viability, T/C [9]: 42.5%
- viability, T/C [10]: 46.8%
- viability, T/C [11]: 45.5%
- viability, T/C [12]: 48.6%
- viability, T/C [13]: 71.9%
- viability, T/C [14]: 52.2%
- viability, T/C [15]: 40.9%
- viability, T/C [16]: 42.7%
- viability, T/C [17]: 41.8%
- viability, T/C [18]: 48.7%
- viability, T/C [19]: 73%
- viability, T/C [20]: 48.5%
- viability, T/C [21]: 41.9%
- viability, T/C [22]: 44%
- viability, T/C [23]: 41.6%
- viability, T/C [24]: 46.8%
- viability, T/C [25]: 71.8%
- viability, T/C [26]: 46.6%
- viability, T/C [27]: 47.5%
- viability, T/C [28]: 48%
- viability, T/C [29]: 47.8%
- viability, T/C [30]: 47.6%
- viability, T/C [31]: 76.6%
- viability, T/C [32]: 47.4%
- viability, T/C [33]: 45.4%
- viability, T/C [34]: 44.3%
- viability, T/C [35]: 48.2%
- viability, T/C [36]: 48.2%
